Laboratory results: US20200407717A1, “METHODS OF MODULATING ANTISENSE ACTIVITY” (Ionis Pharmaceuticals, Inc., priority 2018, published 2020)
e = 2'-O-(2-methoxyethyl) (MOE); d = 2'-deoxy (DNA)

Test system: Malat1 RNA
Test: Antisense activity by RT-qPCR, Malat1, A431 cells
Assay type: cell-based
Experimental: A431 cells were grown at 10,000 cells per well and pre-treated with a variety of growth factors to determine if the addition of exogenous growth factors affects antisense activity or uptake of modified antisense oligonucleotides in a cell. The growth factors used were EGF, insulin growth factor (IGF), transforming growth factor (TGF), […] (VEGF), hepatocyte growth factor (HGF), platelet growth factor (PGF) and fibroblasts growth factor (FGF). To test antisense activity, cells were treated for 4 hours with a growth factor or vehicle alone, and then treated with compound no. 25690 (complementary to Drosha), compound no. 395254 (complementary to Malat1), or vehicle alone. RNA was isolated from the cells and Drosha or Malat1 RNA levels were measured by RT-qPCR. Human primer probe set 13816 (forward sequence […], designated herein as SEQ ID NO: 3; reverse sequence […], designated herein as SEQ ID NO: 4; probe sequence […], designated herein as SEQ ID NO: 5) was used to measure Drosha mRNA levels and primer probe set RTS2736 (forward sequence […], designated herein as SEQ ID NO: 6; reverse sequence […], designated herein as SEQ ID NO: 7; probe sequence TGCCACATCGCCACCCCGT, designated herein as SEQ ID NO: 8) was used to measure Malat1 RNA levels. Drosha and Malat1 RNA levels were normalized to total RNA content, as measured by RIBOGREEN®. Results are presented in the tables below as normalized RNA levels, relative to untreated control cells.
A431 cells were treated with EGF or TGF at 200 ng/mL in the presence or absence of 1 μM of the EGFR tyrosine kinase inhibitor PD174265. The cells were then treated with compound no. 25690 or compound no. 395254 as in Example 8. Total RNA was isolated and analyzed by RT-qPCR, as in Example 8.
Following siRNA treatment, cells were treated with compound no. 25690 or compound no. 395254 in the presence or absence of EGF. 16 hours after treatment with a PS-ASO with or without EGF, cells were harvested, and RNA levels were analyzed via RT-qPCR as in Example 8.

## GGCATATGCAGATAATGTTC (sugars from the 5' end e5 d10 e5, all phosphorothioate, methylation of C not given here) [compound 395254]
125 nM, EGFR siRNA-2
  Malat1 RNA (% Control): 26.6 % Control
125 nM, EGFR siRNA-2 + EGF
  Malat1 RNA (% Control): 55.2 % Control
125 nM, EGFR siRNA-2, Table 27
  Malat1 RNA (% Control): 53.1 % Control
125 nM, TGF
  Malat1 RNA (% Control): 74.4 % Control
125 nM, TGF+PD174265
  Malat1 RNA (% Control): 47.0 % Control
125 nM, TGF, Table 21
  Malat1 RNA (% Control): 33.1 % Control
250 nM, Control
  Malat1 RNA (% Control): 74.0 % Control
250 nM, Control Luciferase siRNA
  Malat1 RNA (% Control): 16.3 % Control
250 nM, Control Luciferase siRNA, Table 27
  Malat1 RNA (% Control): 27.6 % Control
250 nM, Control luciferase + EGF
  Malat1 RNA (% Control): 24.9 % Control
250 nM, Control, Table 21
  Malat1 RNA (% Control): 37.6 % Control
250 nM, EGF
  Malat1 RNA (% Control): 43.6 % Control
250 nM, EGFR siRNA-1
  Malat1 RNA (% Control): 19.7 % Control
250 nM, EGFR siRNA-2
  Malat1 RNA (% Control): 21.5 % Control
250 nM, EGFR siRNA-2 + EGF
  Malat1 RNA (% Control): 34.0 % Control
250 nM, EGFR siRNA-2, Table 27
  Malat1 RNA (% Control): 29.7 % Control
250 nM, TGF
  Malat1 RNA (% Control): 29.4 % Control
250 nM, TGF+PD174265
  Malat1 RNA (% Control): 34.9 % Control
250 nM, TGF, Table 21
  Malat1 RNA (% Control): 19.7 % Control
500 nM, Control
  Malat1 RNA (% Control): 44.5 % Control
500 nM, Control Luciferase siRNA
  Malat1 RNA (% Control): 11.9 % Control
500 nM, Control Luciferase siRNA, Table 27
  Malat1 RNA (% Control): 18.9 % Control
500 nM, Control luciferase + EGF
  Malat1 RNA (% Control): 17.1 % Control
500 nM, Control, Table 21
  Malat1 RNA (% Control): 28.9 % Control
500 nM, EGF
  Malat1 RNA (% Control): 26.1 % Control
500 nM, EGFR siRNA-1
  Malat1 RNA (% Control): 16.9 % Control
500 nM, EGFR siRNA-2
  Malat1 RNA (% Control): 15.1 % Control
500 nM, EGFR siRNA-2 + EGF
  Malat1 RNA (% Control): 24.6 % Control
500 nM, EGFR siRNA-2, Table 27
  Malat1 RNA (% Control): 23.4 % Control
500 nM, TGF
  Malat1 RNA (% Control): 27.9 % Control
500 nM, TGF+PD174265
  Malat1 RNA (% Control): 27.1 % Control
500 nM, TGF, Table 21
  Malat1 RNA (% Control): 13.5 % Control
1000 nM, Control
  Malat1 RNA (% Control): 27.0 % Control
1000 nM, Control Luciferase siRNA
  Malat1 RNA (% Control): 7.9 % Control
1000 nM, Control Luciferase siRNA, Table 27
  Malat1 RNA (% Control): 18.2 % Control
1000 nM, Control luciferase + EGF
  Malat1 RNA (% Control): 15.2 % Control
1000 nM, Control, Table 21
  Malat1 RNA (% Control): 15.2 % Control
1000 nM, EGF
  Malat1 RNA (% Control): 15.1 % Control
1000 nM, EGFR siRNA-1
  Malat1 RNA (% Control): 11.3 % Control
1000 nM, EGFR siRNA-2
  Malat1 RNA (% Control): 12.7 % Control
1000 nM, EGFR siRNA-2 + EGF
  Malat1 RNA (% Control): 21.4 % Control
1000 nM, EGFR siRNA-2, Table 27
  Malat1 RNA (% Control): 17.2 % Control
1000 nM, TGF
  Malat1 RNA (% Control): 14.2 % Control
1000 nM, TGF+PD174265
  Malat1 RNA (% Control): 21.2 % Control
1000 nM, TGF, Table 21
  Malat1 RNA (% Control): 7.2 % Control
2000 nM, Control
  Malat1 RNA (% Control): 24.1 % Control
2000 nM, Control Luciferase siRNA
  Malat1 RNA (% Control): 7.6 % Control
2000 nM, Control Luciferase siRNA, Table 27
  Malat1 RNA (% Control): 15.2 % Control
2000 nM, Control luciferase + EGF
  Malat1 RNA (% Control): 10.2 % Control
2000 nM, Control, Table 21
  Malat1 RNA (% Control): 11.2 % Control
2000 nM, EGF
  Malat1 RNA (% Control): 9.9 % Control
2000 nM, EGFR siRNA-1
  Malat1 RNA (% Control): 10.2 % Control
2000 nM, EGFR siRNA-2
  Malat1 RNA (% Control): 11.0 % Control
2000 nM, EGFR siRNA-2 + EGF
  Malat1 RNA (% Control): 18.3 % Control
2000 nM, EGFR siRNA-2, Table 27
  Malat1 RNA (% Control): 15.2 % Control
2000 nM, TGF
  Malat1 RNA (% Control): 9.5 % Control
2000 nM, TGF+PD174265
  Malat1 RNA (% Control): 10.2 % Control
2000 nM, TGF, Table 21
  Malat1 RNA (% Control): 5.2 % Control
4000 nM, Control
  Malat1 RNA (% Control): 17.9 % Control
4000 nM, Control Luciferase siRNA
  Malat1 RNA (% Control): 1.3 % Control
4000 nM, Control Luciferase siRNA, Table 27
  Malat1 RNA (% Control): 11.2 % Control
4000 nM, Control luciferase + EGF
  Malat1 RNA (% Control): 7.2 % Control
4000 nM, Control, Table 21
  Malat1 RNA (% Control): 7.2 % Control
4000 nM, EGF
  Malat1 RNA (% Control): 10.3 % Control
4000 nM, EGFR siRNA-1
  Malat1 RNA (% Control): 7.8 % Control
4000 nM, EGFR siRNA-2
  Malat1 RNA (% Control): 11.1 % Control
4000 nM, EGFR siRNA-2 + EGF
  Malat1 RNA (% Control): 17.2 % Control
4000 nM, EGFR siRNA-2, Table 27
  Malat1 RNA (% Control): 15.2 % Control
4000 nM, TGF
  Malat1 RNA (% Control): 11.6 % Control
4000 nM, TGF+PD174265
  Malat1 RNA (% Control): 7.2 % Control
4000 nM, TGF, Table 21
  Malat1 RNA (% Control): 5.7 % Control
Control (no growth factor), Table 16
  IC50: 36 ± 3.2 nM
Control Luciferase siRNA, Table 25
  IC50: 46 ± 5.3 nM
Control Luciferase siRNA, Table 27
  IC50: 49 ± 6.3 nM
Control luciferase + EGF, Table 27
  IC50: 26 ± 2.4 nM
Control, Table 21
  IC50: 50 ± 7 nM
EGF pre-treatment 4 hours, Table 16
  IC50: 15 ± 3 nM
EGFR siRNA-1, Table 25
  IC50: 86 ± 9.3 nM
EGFR siRNA-2 + EGF, Table 27
  IC50: 87 ± 4.2 nM
EGFR siRNA-2, Table 25
  IC50: 100 ± 9.7 nM
EGFR siRNA-2, Table 27
  IC50: 89 ± 5.9 nM
TGF 200 ng/mL + 1 μM PD174265, Table 21
  IC50: 56 ± 8.1 nM
TGF 200 ng/mL, Table 21
  IC50: 21 ± 4 nM
TGF pre-treatment 4 hours, Table 16
  IC50: 13 ± 2.1 nM
Cells treated with IGF, FGF, HGF, VEGF or PGF relative to PS-ASO alone (data not shown)
  half maximal inhibitory concentration, Malat1: unchanged
